Values of other authors, collected in patent EP2074993A1, “Venlafaxine-containing film-coated modified-release tablets” (Biovail Laboratories International S.r.l., priority 2007, dated 2009).

Conditions: in vivo

Row | Compound | elimination half-life
1 | COc1ccc(C(CN(C)C)C2(O)CCCCC2)cc1 (racemic) [Venlafaxine, (R/S)-1-[2-(dimethylamino)-1-(4-methoxyphenyl)ethyl]cyclohexanol] | about 4 hours
2 | CN(C)CC(c1ccc(O)cc1)C1(O)CCCCC1 (centres unmarked) [O-desmethylvenlafaxine] | about 8 hours
